Results as given in ChEMBL document CHEMBL3507680, “University of Dundee, Gates Library screen for HepG2 cell viability”.

Assay: Human HepG2 cell viability assay in 384 well format
Assay type: toxicity, cell-based
Design: dose 125 nL, time 70.5 hour; concentration not given beside the values
Details: HepG2 cells, read-out: Inhibition

CC1CCCN(Cc2coc(-c3cccc(F)c3)n2)C1 (centres undefined)
cytotoxicity at 70.5 h: -5.26%

CCCN(CCC)C(=O)CN(C)C1CCc2ccccc21 (centres undefined)
cytotoxicity at 70.5 h: -7.56%

CC(=O)N1CCCN(C(=O)CCOc2ccc(C(C)C)cc2)CC1
cytotoxicity at 70.5 h: 21.2%

COc1ccc(CN2CCCN(C(=O)C(C)n3ccnc3)CC2)cc1 (centres undefined)
cytotoxicity at 70.5 h: -4.32%

Fc1ccc(-c2nc(CNCCn3cccn3)cs2)cc1
cytotoxicity at 70.5 h: 0.385%

CCS(=O)(=O)CCN1CCCC1c1noc(C)n1 (centres undefined)
cytotoxicity at 70.5 h: -8.31%

CC(=O)NCC1CCN(C(=O)CCOc2ccc(C(C)C)cc2)CC1
cytotoxicity at 70.5 h: -0.488%

COc1c(CNCc2ccc(N3CCCC3)nc2)c(C(C)C)nn1C
cytotoxicity at 70.5 h: -9.28%

CC(C)c1ccc(OCCC(=O)N2CCCC(C(N)=O)C2)cc1 (centres undefined)
cytotoxicity at 70.5 h: -5.32%

CCn1c(CN2CCN(CCO)CC2)nc2c(F)cccc21
cytotoxicity at 70.5 h: -4.39%

Cc1cccc(C(=O)NC(C)CN2CCCC2=O)n1 (centres undefined)
cytotoxicity at 70.5 h: 21%

CC(C(=O)N1CCN(Cc2ccc(C#N)cc2)CC1)n1ccnc1 (centres undefined)
cytotoxicity at 70.5 h: -0.223%

Cc1nc(-c2ccsc2)ccc1C(=O)NC(C)CN1CCOCC1 (centres undefined)
cytotoxicity at 70.5 h: -3.57%

Cc1ccc(CC(=O)N2CCN(CC(O)C(C)(C)C)CC2)cn1 (centres undefined)
cytotoxicity at 70.5 h: 0.113%

Cc1ccc(CC(=O)N2CCN(CC(C)O)CC2)cn1 (centres undefined)
cytotoxicity at 70.5 h: -5.27%

CCNc1cc2c(nn1)CCN(C(=O)c1cccnc1N(C)C)C2
cytotoxicity at 70.5 h: -1.46%

CCc1nc(C2CCCN2CCCSC)no1 (centres undefined)
cytotoxicity at 70.5 h: -4.43%

Cc1ccccc1SCC(=O)NS(=O)(=O)c1ccc2c(c1)OCCO2
cytotoxicity at 70.5 h: -2.48%

CSCC(=O)NS(=O)(=O)c1ccc2c(c1)OCCO2
cytotoxicity at 70.5 h: 0.628%

Cc1csc(CNCc2c(C)nn(C)c2N2CCOCC2)n1
cytotoxicity at 70.5 h: -0.213%

COC(=O)c1cc(C(=O)N2CCCC(C)C2)n(-c2ccccc2)n1 (centres undefined)
cytotoxicity at 70.5 h: -10.2%

Cc1nc(C)n(CC2CCCN2Cc2nc(-c3ccoc3)no2)n1 (centres undefined)
cytotoxicity at 70.5 h: -11.7%

COc1ccccc1COCC(O)CN1CC(n2cccn2)C1 (centres undefined)
cytotoxicity at 70.5 h: -10.8%

CC(C)c1nnc2n1CCN(Cc1ncc(-c3ccccc3)o1)C2
cytotoxicity at 70.5 h: -10.5%

Fc1ccc(-c2cnc(CN3CCn4c(nnc4C4CC4)C3)o2)cc1
cytotoxicity at 70.5 h: -9.29%

N#CC1(C(=O)N2CCCN(c3nccs3)CC2)CCCC1
cytotoxicity at 70.5 h: -11%

Cc1cc2n(n1)CC(CNCc1ccc(-n3ccnc3C)nc1)CN2 (centres undefined)
cytotoxicity at 70.5 h: -20.7%

Cc1cc(C)n(CC2CN(CC(=O)Nc3c(C)n[nH]c3C)CCO2)n1 (centres undefined)
cytotoxicity at 70.5 h: -8.05%

O=c1oc(-c2ccc(F)cc2)nn1CN1CCN(C2CCCC2)CC1
cytotoxicity at 70.5 h: -9.32%

Cn1ccc(CN2CCC(c3ccccc3)CC2)cc1=O
cytotoxicity at 70.5 h: -8.13%

c1ccc(-c2nc(CNC3CCc4ncnn4C3)co2)cc1 (centres undefined)
cytotoxicity at 70.5 h: 1.4%

Cc1cc(C[S+]([O-])CC(=O)Nc2c(C)cccc2C)no1 (centres undefined)
cytotoxicity at 70.5 h: -8.27%

Cc1cc(C[S+]([O-])CC(=O)NCc2cccs2)no1 (centres undefined)
cytotoxicity at 70.5 h: -4.91%

COc1ccc(-c2nc(CN3CCCC3Cn3cccn3)no2)cc1 (centres undefined)
cytotoxicity at 70.5 h: -0.173%

CC(C(=O)NCc1ccc(N2CCNC(=O)C2)cc1)n1cncn1 (centres undefined)
cytotoxicity at 70.5 h: 4.32%

CC1CN(Cc2nccn2C)CCN1c1ccc2nncn2n1 (centres undefined)
cytotoxicity at 70.5 h: 6.8%

COc1cccc(CN2CCN(c3ccc4nncn4n3)C(C)C2)c1 (centres undefined)
cytotoxicity at 70.5 h: 9.6%

Cc1cc(C(=O)NCCN2CCCC(C)C2)nn1C (centres undefined)
cytotoxicity at 70.5 h: -5.9%

CC(C)(C)c1cnc(CN2CCC[C@H]2CO)o1
cytotoxicity at 70.5 h: 0.665%

CCc1csc(C2CCCN(C(=O)C3=NN(CC)C(=O)CC3)C2)n1 (centres undefined)
cytotoxicity at 70.5 h: 3.39%

CC(C)(C)c1nc(CN2CCCC2CCc2ccccc2)no1 (centres undefined)
cytotoxicity at 70.5 h: 13.1%

COc1c(C2CCCN2C(=O)c2csc(C(C)C)n2)c(C)nn1C (centres undefined)
cytotoxicity at 70.5 h: -12.3%

CC(C)c1nc(C2CCCN2CCc2ccncc2)no1 (centres undefined)
cytotoxicity at 70.5 h: 16.2%

Cc1nc(C)n(C2CCCN(C(=O)CCCOc3ccccc3)C2)n1 (centres undefined)
cytotoxicity at 70.5 h: 3.66%

Cc1cnn(C2CN(Cc3nc(C(C)(C)C)no3)C2)c1
cytotoxicity at 70.5 h: 20.7%

CCn1cnnc1CNC(=O)N1CCN(c2cccc(OC)c2)CC1
cytotoxicity at 70.5 h: -6.51%

CCOC(=O)N1CCN(Cc2ccc(OCc3nccn3C)cc2)CC1
cytotoxicity at 70.5 h: 1.77%

Cn1ncc2c(=O)[nH]c(CN(Cc3cccc(F)c3)C3CC3)nc21
cytotoxicity at 70.5 h: 1.56%

COc1ccccc1C(O)CNCc1c(C(C)C)nn(C)c1N(C)C (centres undefined)
cytotoxicity at 70.5 h: 13.7%

COC(=O)c1cccn1C1CCN(C(=O)c2cc(C)ccc2O)CC1
cytotoxicity at 70.5 h: 2.48%

COC(=O)c1cccn1C1CCN(C(=O)c2cc(F)ccc2F)CC1
cytotoxicity at 70.5 h: -1.51%

CC(C)Cc1cc(NC(=O)c2ccc(=O)[nH]n2)n(C)n1
cytotoxicity at 70.5 h: -2.14%

Cc1ccc(N(C)C2CCN(C(=O)c3ccsc3)CC2)nn1
cytotoxicity at 70.5 h: -13.8%

Cc1ccc(NC2CCN(C(=O)c3cccn3C)CC2)nn1
cytotoxicity at 70.5 h: 32.5%

Cc1ccc(NC2CCN(C(=O)c3ccsc3)CC2)nn1
cytotoxicity at 70.5 h: -3.84%

CCc1nccn1C1CCCN(C(=O)c2ccc3nncn3c2)C1 (centres undefined)
cytotoxicity at 70.5 h: -6.04%

NC(=O)c1cc(C2CCCN(C(=O)CCc3ccsc3)C2)n[nH]1 (centres undefined)
cytotoxicity at 70.5 h: -2.62%

CCn1cc(CN2CCCN(C(=O)CCCn3cncn3)CC2)cn1
cytotoxicity at 70.5 h: 1.08%

CCc1cnc(CNc2ccc(C(=O)N3CCCC(C)C3)cc2C)o1 (centres undefined)
cytotoxicity at 70.5 h: -10.4%

O=C(CCc1cscn1)N1CCCC(c2ccn[nH]2)C1 (centres undefined)
cytotoxicity at 70.5 h: -8.08%

CN(Cc1nc(N)c2ccccc2n1)C1CCCN(c2cccnn2)C1 (centres undefined)
cytotoxicity at 70.5 h: -5.77%

CCc1nccn1C1CCCN(C(=O)c2ccc3c(c2)OCO3)C1 (centres undefined)
cytotoxicity at 70.5 h: -6.7%

Cc1cc(C(=O)N2CCCCC2C)ccc1NCCCO (centres undefined)
cytotoxicity at 70.5 h: -17.1%

CCN(C(=O)CN(C)C(c1cccc(F)c1)c1ccccn1)C1CC1 (centres undefined)
cytotoxicity at 70.5 h: -5.47%

Cc1nn(C)c(C)c1C1COCCN1C(=O)c1cnc(N)c(Cl)c1 (centres undefined)
cytotoxicity at 70.5 h: -3.52%

Cc1cccc(CC(=O)NCCCOC(C)C)c1
cytotoxicity at 70.5 h: -10.5%

CCOCC(O)CN1CCN(C(=O)c2ccc(OC)cc2F)CC1 (centres undefined)
cytotoxicity at 70.5 h: -21.8%

Cc1nc(C2CCCN(C(=O)CCCn3cccn3)C2)no1 (centres undefined)
cytotoxicity at 70.5 h: -11.8%

Cc1noc(CN2CCN(Cc3cccs3)CC2)n1
cytotoxicity at 70.5 h: -25.4%

CNS(=O)(=O)Cc1ccc(CNc2cncc(-n3cccn3)n2)cc1
cytotoxicity at 70.5 h: -18.1%

CN(Cc1ccsc1)C(=O)c1cccc(NS(C)(=O)=O)c1
cytotoxicity at 70.5 h: -7.22%

Cc1cccc(CS(=O)(=O)CC(=O)NCCCOC(C)C)c1
cytotoxicity at 70.5 h: 16.8%

COc1ccccc1CC(=O)NS(C)(=O)=O
cytotoxicity at 70.5 h: -10.7%

CC(NC(=O)NCCCN(C)C)c1ccc2c(c1)CCC(=O)N2 (centres undefined)
cytotoxicity at 70.5 h: -10.2%

Cc1ccc(CNC(=O)NCc2cccnc2N(C)C)s1
cytotoxicity at 70.5 h: -14.6%

CC(NC(=O)NCc1cc[nH]n1)c1ccc2c(c1)CCC(=O)N2 (centres undefined)
cytotoxicity at 70.5 h: -19.8%

O=C(O)c1cc(NS(=O)(=O)c2cccc(Cl)c2F)ccc1Cl
cytotoxicity at 70.5 h: -5.66%

COC(=O)C(NC(=O)COC1CCCC1)c1cc(F)ccc1F (centres undefined)
cytotoxicity at 70.5 h: -11.6%

COc1cc(CN(C(=O)Nc2cccnc2OC)C2CC2)ccc1O
cytotoxicity at 70.5 h: -19.7%

CCOCC(O)CN1CCN(C(=O)c2cc(F)ccc2C)CC1 (centres undefined)
cytotoxicity at 70.5 h: -18.9%

Cc1cnc(CNC(=O)NCc2cccnc2N(C)C)s1
cytotoxicity at 70.5 h: -17.2%

O=C(O)c1c[nH]c2cc(NS(=O)(=O)c3cccc(Cl)c3F)ccc12
cytotoxicity at 70.5 h: -10.1%

COc1ccccc1CC(=O)NS(=O)(=O)c1cncc(Br)c1
cytotoxicity at 70.5 h: 4.46%

Cc1cnn(CCNCC(=O)NCCOc2ccccc2)c1
cytotoxicity at 70.5 h: 39.9%
